# Test results: patent publication US20090304744A1, “METHODS OF ENHANCING IMMUNE RESPONSE IN THE INTRADERMAL COMPARTMENT AND COMPOUNDS USEFUL THEREOF” (priority 2003, published 2009)
# Where two headings read alike, the source gives them in different places.
# Assays:
# [1] = test system: influenza antigen (Influenza APR834); assay type: in vivo, Balb/c mice; conditions: for Trend in immune response as indicated by ELISA signal (1:123 serum screening dilution): mice
# [2] = test system: trivalent test antigen (New Calcdonia, Panama and B-Hong Kong); set-up: species or system Hartley Guinea Pigs; conditions: guinea pig, in vivo
# guinea pig skin = experiment: Guinea pig erythema Draize scoring after ID delivery of excipients; assay type: in vivo, Hartley guinea pigs; conditions: Tween 80 5%, Deoxycholate 0.1%, D-sorbitol 5%, Lutrol 15%; without antigen, 50 ul per injection, 34 gauge 1.0 mm; immediate, 1 h and 24 h readings
# From the text: The methods of the invention provide fundamental principles and guidelines whereby optimum parameters may be determined for delivering immunogenic compositions to the dermal compartment (including epidermal and intradermal compartments) wherein the excipients have optimum adjuvant properties and the formulations of the invention have enhanced efficacy in comparison to when the same formulation is delivered using conventional modes of delivery, including intramuscular and subcutaneous delivery. The invention provides methods wherein the formulations of the invention have been screened to have optimum concentration ranges for delivery to the optimum depth of the intradermal compartment such that they have adjuvant properties, resulting in one or more of the following properties: minimal to no skin irritation as determined and assessed using conventional modes of analysis of skin reactions using visual methods such as Draize scoring (For a typical draize scoring analysis see table below); minimal to no hemolysis as determined using standard methods known in the art, and enhanced immune response as measured by enhanced seroconversion and/or enhanced antibody titers.
# Erythema Draize scores for various excipients were determined using procedures described in Section 5.4, above. In one study, Tween™ 80 (5%), Deoxycholate (0.1%), D-sorbitol (5%) or Lutrol™ (15%) was administered (50 μl per injection) without the antigen to Hartley guinea pigs using 34 gauge, 1.0 mm needles. […] Deeper administrations will be necessary for deoycholate to be used reliably at this concentration. From left to right, the reading immediately after administration, the one-hour reading and the 24-hour reading.
# swine skin = conditions: for Erythema Draize scores (tolerability): Tween 80 5%, Deoxycholate 0.1%, D-sorbitol 5%, Lutrol 15%, without antigen, 200 ul per injection, 31 gauge 1.5 mm, 1 h and 24 h readings; for tolerated amphotericin per dose / tolerated total amphotericin per dose: Draize score 1 hour post administration
# [3] = Yorkshire swine, 1.5 mm depth, listed as Amp-B
molecule,measurement,setting,value
O=S([O-])O.[Na+] [Sodium Bisulfite],Trend in immune response as indicated by ELISA signal (1:123 serum screening dilution),"[1]; excipient 0.3% w/v with FLUZONE, ID",0.808
same,Trend in immune response as indicated by ELISA signal (1:123 serum screening dilution),"[1]; excipient 0.9% w/v with FLUZONE, ID",1.833
same,Trend in immune response as indicated by ELISA signal (1:123 serum screening dilution),"[1]; excipient 2.7% w/v with FLUZONE, ID",2.048
NC(N)=O [Urea],Trend in immune response as indicated by ELISA signal (1:123 serum screening dilution),"[1]; excipient 1% w/v with FLUZONE, ID",0.979
same,Trend in immune response as indicated by ELISA signal (1:123 serum screening dilution),"[1]; excipient 5% w/v with FLUZONE, ID",1.585
same,Trend in immune response as indicated by ELISA signal (1:123 serum screening dilution),"[1]; excipient 20% w/v with FLUZONE, ID",1.555
Triton X-100,Trend in immune response as indicated by ELISA signal (1:123 serum screening dilution),"[1]; excipient 0.0001% w/v with FLUZONE, ID",1.321
same,Trend in immune response as indicated by ELISA signal (1:123 serum screening dilution),"[1]; excipient 0.0009% w/v with FLUZONE, ID",1.214
oxtoxynol 9 [Triton N-101],Trend in immune response as indicated by ELISA signal (1:123 serum screening dilution),"[1]; excipient 0.13% w/v with FLUZONE, ID",0.805
same,Trend in immune response as indicated by ELISA signal (1:123 serum screening dilution),"[1]; excipient 1.3% w/v with FLUZONE, ID",2.035
"C[C@H](CCC(=O)[O-])[C@H]1CC[C@H]2[C@@H]3CC[C@@H]4C[C@H](O)CC[C@]4(C)[C@H]3C[C@H](O)[C@]12C.[Na+] [Deoxycholate, sodium deoxycholate]",hemagglutin specific titer vs FLUZONE alone ID and FLUZONE alone IM,[2],outperformed
same,Erythema Draize scores (tolerability),guinea pig skin,just above the acceptable draize score
same,animals seroconverted 21 days after immunization,"[1]; DOC-supplemented (0.1% sodium deoxycholate) FLUZONE, ID, Balb/c mice",5 of 5
same,median titer,"[1]; ID formulation containing 0.1% sodium deoxycholate vs IM and ID without, Balb/c mice",best median titer
same,Erythema Draize scores (tolerability),swine skin,just above the acceptable draize score
same,skin compatibility,"swine skin; deoxycholate 0.05 and 0.1% +/- trivalent vaccine, 1.5 mm depth, Yorkshire swine",performed well
same,skin compatibility,"swine skin; deoxycholate 0.5% W/V and higher, 1.5 mm depth",could not be tolerated
CCO [Ethanol],Trend in immune response as indicated by ELISA signal (1:123 serum screening dilution),"[1]; excipient 0.05% v/v with FLUZONE, ID",0.901
same,Trend in immune response as indicated by ELISA signal (1:123 serum screening dilution),"[1]; excipient 0.15% v/v with FLUZONE, ID",2.742
same,Trend in immune response as indicated by ELISA signal (1:123 serum screening dilution),"[1]; excipient 0.45% v/v with FLUZONE, ID",1.530
"C[C@@H]1[C@H](O)[C@@H](C)/C=C/C=C/C=C/C=C/C=C/C=C/C=C/[C@H](O[C@@H]2O[C@H](C)[C@@H](O)[C@H](N)[C@@H]2O)C[C@@H]2O[C@](O)(C[C@@H](O)C[C@@H](O)[C@H](O)CC[C@@H](O)C[C@@H](O)CC(=O)O[C@H]1C)C[C@H](O)[C@H]2C(=O)O [Amphotericin B, reference compound]",Trend in immune response as indicated by ELISA signal (1:123 serum screening dilution),"[1]; excipient 20 ng/ml with FLUZONE, ID",0.975
same,Trend in immune response as indicated by ELISA signal (1:123 serum screening dilution),"[1]; excipient 60 ng/ml with FLUZONE, ID",1.575
same,Trend in immune response as indicated by ELISA signal (1:123 serum screening dilution),"[1]; excipient 180 ng/ml with FLUZONE, ID",1.018
same,tolerated amphotericin per dose,"swine skin; Yorkshire swine, 1.5 mm depth",up to 600 ng/100 ul
same,tolerated total amphotericin per dose,"swine skin; Yorkshire swine, 1.5 mm depth",≤ 1200 ng/200 ul
same,tolerated amphotericin per dose,swine skin; [3],600 ng/100 ul
same,tolerated total amphotericin per dose,swine skin; [3],1200 ng/200 ul
same,tolerability by Draize score analysis,"swine skin; alone and as a mixture with FLUZONE vaccine, 1.5 mm depth, Yorkshire swine",well tolerated
OC[C@@H](O)[C@@H](O)[C@H](O)[C@@H](O)CO [D-sorbitol],Erythema Draize scores (tolerability),guinea pig skin,reasonably well-tolerated
same,serum titer enhancement vs equal amount of Fluzone without sorbitol,"[1]; Fluzone supplemented with sorbitol, ID, six point ELISA",3 ×
same,Trend in immune response as indicated by ELISA signal (1:123 serum screening dilution),"[1]; excipient 2% w/v with FLUZONE, ID",1.062
same,Trend in immune response as indicated by ELISA signal (1:123 serum screening dilution),"[1]; excipient 10% w/v with FLUZONE, ID",1.102
same,Trend in immune response as indicated by ELISA signal (1:123 serum screening dilution),"[1]; excipient 58% w/v with FLUZONE, ID",1.58
same,erythema,"swine skin; 10% W/V, 1-2 mm depth, 20-24 hours post administration, Yorkshire swine",mild erythema
same,tolerability,"swine skin; 10%, delivered to 1-2 mm depth, Yorkshire swine",well tolerated
same,Erythema Draize scores (tolerability),swine skin,reasonably well-tolerated
